Several values for one entry are separate records, joined by “and”; a condition that tells them apart may be missing. Equal entries are not always repeated.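 Where inhibition never reached the appropriate level, the endpoint shown equals the highest concentration tested. Otherwise, values were interpolated linearly from a five-concentration, 48-hour dose response in 96-well plates. Here, GI50 denotes the concentration required for 50% inhibition of growth. TGI is the concentration that stops growth completely.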

Test systems include NCI/ADR-RES ovarian; U251 CNS; NCI-H226 lung; 786-0 renal; HCC-2998 colon; A549 NSCLC; TK-10 renal; OVCAR-3 ovarian; MALME-3M melanoma; MDA-MB-231 breast.
Holding throughout (assay): inhibition of tumour cell growth, NCI panel, 48 h

Take `CN(C)c1ccc(/C=N/n2c(CCCCc3n[nH]c(=S)n3/N=C/c3ccc(N(C)C)cc3)n[nH]c2=S)cc1`: the GI50 was over 100 µM with NCI/ADR-RES ovarian; 74 µM in the assay with U251 CNS; over 100 µM with NCI-H226 lung; 89.3 µM in the assay on 786-0 renal; over 100 µM with HCC-2998 colon; over 100 µM in the assay with A549 NSCLC. Also, the GI50 in the assay with TK-10 renal was over 100 µM; in the assay with OVCAR-3 ovarian, over 100 µM; in the assay with MALME-3M melanoma, over 100 µM; in the assay with MDA-MB-231 breast, 41.3 µM. Moreover, the TGI in the assay on NCI/ADR-RES ovarian, with U251 CNS, in the assay on NCI-H226 lung, in the assay with 786-0 renal, with HCC-2998 colon and with A549 NSCLC was over 100 µM in each case. The TGI in the assay on TK-10 renal, in the assay on OVCAR-3 ovarian, in the assay on MALME-3M melanoma and in the assay on MDA-MB-231 breast was over 100 µM each time.
`CN(CO)c1nc(N(C)CO)nc(N(C)CO)n1`: the GI50 is 21.7 µM and 20.7 µM in the assay with NCI/ADR-RES ovarian; 29.6 µM in the assay with U251 CNS; 24.8 µM and 9.99 µM with NCI-H226 lung; 29.6 µM with 786-0 renal; 27.9 µM and 25.5 µM in the assay on HCC-2998 colon; 23.5 µM in the assay on A549 NSCLC. The GI50 in the assay with MALME-3M melanoma was 17.5 µM; in the assay with MDA-MB-231 breast it was 18.3 µM. In addition, the TGI in the assay with NCI/ADR-RES ovarian was 54.6 µM and 57.4 µM; in the assay with U251 CNS, 72.8 µM and 46.2 µM; with NCI-H226 lung it was > 70.3 µM and 21.4 µM; in the assay with 786-0 renal, 56.9 µM and 105 µM; with HCC-2998 colon it was 67.8 µM and 52.4 µM; in the assay with A549 NSCLC it was 64 µM and 26.3 µM. Moreover, the TGI in the assay on TK-10 renal was 82.9 µM and 77.4 µM; with OVCAR-3 ovarian, 62.1 µM and 63.5 µM; in the assay on MALME-3M melanoma it was 34.2 µM and 26.1 µM; with MDA-MB-231 breast, 42.9 µM and 46.9 µM.
Regarding `Cn1c2ccccc2c2c(=O)n(CCCC(=O)NCCc3cnc[nH]3)c3c(-c4ccccc4)nnn3c21`, the GI50 is over 50 µM in the assay on NCI/ADR-RES ovarian; 9.46 µM in the assay on U251 CNS; over 50 µM in the assay with NCI-H226 lung; 2.19 µM in the assay on 786-0 renal; 9.51 µM in the assay on HCC-2998 colon; 12.8 µM in the assay on A549 NSCLC. Further, the GI50 in the assay with TK-10 renal was 4.8 µM; with OVCAR-3 ovarian, 8.39 µM; in the assay on MALME-3M melanoma, 7.55 µM; with MDA-MB-231 breast, 9.27 µM. For the same compound, the TGI in the assay on NCI/ADR-RES ovarian was over 50 µM; in the assay with U251 CNS, 18.4 µM; in the assay on NCI-H226 lung it was over 50 µM; in the assay on 786-0 renal, 8.15 µM; in the assay with HCC-2998 colon, 19.7 µM; in the assay with A549 NSCLC, 24.2 µM. The TGI in the assay on TK-10 renal is 11.5 µM; in the assay with OVCAR-3 ovarian, 16.3 µM; in the assay with MALME-3M melanoma it was 16.7 µM; in the assay with MDA-MB-231 breast it was 18.6 µM.
